Test system: HUVEC/MSC spheroids viability
Assay: Human HUVEC/MSC cell line growth inhibition [KRAS2];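 as to viability, T/C: percent of DMSO vehicle control luminescence so 100% = untreated viability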
Settings: for IC50: curve of first compound; for viability, T/C: stronger effect = lower value; active = viability on the fitted dose curve at most 10% of control; inactive = the rest
Summary of the method: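 HUVEC + hMSC stromal spheroids only, no malignant cells; 37 °C, 5% CO2. Drugs singly and in pairs, half-log series down from clinical Cmax (max 10 microM if Cmax undetermined).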

[1] = second compound 0.0316 µM, first compound 0.0316 µM
[2] = second compound 0.0316 µM, first compound 0.1 µM
[3] = second compound 0.0316 µM, first compound 0.316 µM
[4] = second compound 0.0316 µM, first compound 1 µM
[5] = second compound 0.1 µM, first compound 0.0316 µM
[6] = second compound 0.1 µM, first compound 0.1 µM
[7] = second compound 0.1 µM, first compound 0.316 µM
[8] = second compound 0.1 µM, first compound 1 µM
[9] = second compound 0.316 µM, first compound 0.0316 µM
[10] = second compound 0.316 µM, first compound 0.1 µM
[11] = second compound 0.316 µM, first compound 0.316 µM
[12] = second compound 0.316 µM, first compound 1 µM
[13] = second compound 1 µM, first compound 0.0316 µM
[14] = second compound 1 µM, first compound 0.1 µM
[15] = second compound 1 µM, first compound 0.316 µM
[16] = second compound 1 µM, first compound 1 µM
[17] = second compound 3.16 µM, first compound 0.0316 µM
[18] = second compound 3.16 µM, first compound 0.1 µM
[19] = second compound 3.16 µM, first compound 0.316 µM
[20] = second compound 3.16 µM, first compound 1 µM
[21] = second compound 10 µM, first compound 0.0316 µM
[22] = second compound 10 µM, first compound 0.1 µM
[23] = second compound 10 µM, first compound 0.316 µM
[24] = second compound 10 µM, first compound 1 µM

COC(=O)c1ccc2c(C(=Nc3ccc(N(C)C(=O)CN4CCN(C)CC4)cc3)c3ccccc3)c(O)[nH]c2c1 + CNCc1ccccc1-c1csc(C(C)Nc2nc(C)nc3cc(OC)c(OC)cc23)c1
1.47 µM: IC50 (second compound 0.1 µM)
active: viability, T/C (second compound 0.0316 µM, first compound 10 µM) 0.32% | viability, T/C (second compound 0.1 µM, first compound 10 µM) 0.41% | viability, T/C (second compound 0.316 µM, first compound 10 µM) 0.39% | viability, T/C (second compound 1 µM, first compound 10 µM) 0.24% | viability, T/C (second compound 3.16 µM, first compound 3.16 µM) 0.34% | viability, T/C (second compound 3.16 µM, first compound 10 µM) 0.27% | viability, T/C [21] 0.37% | viability, T/C [22] 0.4% | viability, T/C [23] 0.49% | viability, T/C [24] 0.51% | viability, T/C (second compound 10 µM, first compound 3.16 µM) 0.34% | viability, T/C (second compound 10 µM, first compound 10 µM) 0.2%
1.42 µM: IC50 (second compound 0.316 µM)
1.19 µM: IC50 (second compound 1 µM)
inactive: viability, T/C [1] 77% | viability, T/C [2] 117% | viability, T/C [3] 76.5% | viability, T/C [4] 53.4% | viability, T/C (second compound 0.0316 µM, first compound 3.16 µM) 37.9% | viability, T/C [5] 76.7% | viability, T/C [6] 103% | viability, T/C [7] 87.3% | viability, T/C [8] 48.4% | viability, T/C (second compound 0.1 µM, first compound 3.16 µM) 36.9% | viability, T/C [9] 74.6% | viability, T/C [10] 125% | viability, T/C [11] 90.9% | viability, T/C [12] 53.1% | viability, T/C (second compound 0.316 µM, first compound 3.16 µM) 31.9% | viability, T/C [13] 72.9% | viability, T/C [14] 85.9% | viability, T/C [15] 72.3% | viability, T/C [16] 57.5% | viability, T/C (second compound 1 µM, first compound 3.16 µM) 10.4% | viability, T/C [17] 103% | viability, T/C [18] 95.8% | viability, T/C [19] 84% | viability, T/C [20] 53.1%
0.988 µM: IC50 (second compound 3.16 µM)
< 0.0316 µM: IC50 (second compound 10 µM)
1.55 µM: IC50 (second compound 0.0316 µM)

CCN1CCN(Cc2ccc(Nc3ncc(F)c(-c4cc(F)c5nc(C)n(C(C)C)c5c4)n3)nc2)CC1 + C=CC(=O)N1CCN(c2nc(=O)n(-c3c(C)ccnc3C(C)C)c3nc(-c4c(O)cccc4F)c(F)cc23)C(C)C1
inactive: viability, T/C (second compound 0.0316 µM, first compound 0.00316 µM) 76% | viability, T/C (second compound 0.0316 µM, first compound 0.01 µM) 95.8% | viability, T/C [1] 93.7% | viability, T/C [2] 86.6% | viability, T/C [3] 129% | viability, T/C [4] 107% | viability, T/C (second compound 0.1 µM, first compound 0.00316 µM) 96.8% | viability, T/C (second compound 0.1 µM, first compound 0.01 µM) 102% | viability, T/C [5] 85.1% | viability, T/C [6] 82.9% | viability, T/C [7] 129% | viability, T/C [8] 116% | viability, T/C (second compound 0.316 µM, first compound 0.00316 µM) 113% | viability, T/C (second compound 0.316 µM, first compound 0.01 µM) 106% | viability, T/C [9] 98% | viability, T/C [10] 87.2% | viability, T/C [11] 112% | viability, T/C [12] 123% | viability, T/C (second compound 1 µM, first compound 0.00316 µM) 118% | viability, T/C (second compound 1 µM, first compound 0.01 µM) 109% | viability, T/C [13] 109% | viability, T/C [14] 119% | viability, T/C [15] 119% | viability, T/C [16] 133% | viability, T/C (second compound 3.16 µM, first compound 0.00316 µM) 127% | viability, T/C (second compound 3.16 µM, first compound 0.01 µM) 111% | viability, T/C [17] 132% | viability, T/C [18] 121% | viability, T/C [19] 138% | viability, T/C [20] 162% | viability, T/C (second compound 10 µM, first compound 0.00316 µM) 149% | viability, T/C (second compound 10 µM, first compound 0.01 µM) 154% | viability, T/C [21] 130% | viability, T/C [22] 134% | viability, T/C [23] 118% | viability, T/C [24] 162%
> 1 µM: IC50 (second compound 0.0316 µM) | IC50 (second compound 0.1 µM) | IC50 (second compound 0.316 µM) | IC50 (second compound 1 µM) | IC50 (second compound 3.16 µM) | IC50 (second compound 10 µM)

CC(=O)OC12COC1CC(O)C1(C)C(=O)C(O)C3=C(C)C(OC(=O)C(O)C(NC(=O)OC(C)(C)C)c4ccccc4)CC(O)(C(OC(=O)c4ccccc4)C21)C3(C)C (stereo unspecified) + C=CC(=O)N1CCN(c2nc(=O)n(-c3c(C)ccnc3C(C)C)c3nc(-c4c(O)cccc4F)c(F)cc23)C(C)C1
inactive: viability, T/C (second compound 0.0316 µM, first compound 0.00949 µM) 57.6% | viability, T/C (second compound 0.0316 µM, first compound 0.03 µM) 67.8% | viability, T/C (second compound 0.0316 µM, first compound 0.0949 µM) 47.2% | viability, T/C (second compound 0.0316 µM, first compound 0.3 µM) 41.4% | viability, T/C (second compound 0.0316 µM, first compound 0.949 µM) 63% | viability, T/C (second compound 0.0316 µM, first compound 3 µM) 55.2% | viability, T/C (second compound 0.1 µM, first compound 0.00949 µM) 65.5% | viability, T/C (second compound 0.1 µM, first compound 0.03 µM) 52.8% | viability, T/C (second compound 0.1 µM, first compound 0.0949 µM) 57.4% | viability, T/C (second compound 0.1 µM, first compound 0.3 µM) 54.1% | viability, T/C (second compound 0.1 µM, first compound 0.949 µM) 57.3% | viability, T/C (second compound 0.1 µM, first compound 3 µM) 63.7% | viability, T/C (second compound 0.316 µM, first compound 0.00949 µM) 54.5% | viability, T/C (second compound 0.316 µM, first compound 0.03 µM) 58.9% | viability, T/C (second compound 0.316 µM, first compound 0.0949 µM) 61.6% | viability, T/C (second compound 0.316 µM, first compound 0.3 µM) 57.5% | viability, T/C (second compound 0.316 µM, first compound 0.949 µM) 65% | viability, T/C (second compound 0.316 µM, first compound 3 µM) 70.3% | viability, T/C (second compound 1 µM, first compound 0.00949 µM) 57.1% | viability, T/C (second compound 1 µM, first compound 0.03 µM) 61.4% | viability, T/C (second compound 1 µM, first compound 0.0949 µM) 59.2% | viability, T/C (second compound 1 µM, first compound 0.3 µM) 59.8% | viability, T/C (second compound 1 µM, first compound 0.949 µM) 62.9% | viability, T/C (second compound 1 µM, first compound 3 µM) 67.9% | viability, T/C (second compound 3.16 µM, first compound 0.00949 µM) 66% | viability, T/C (second compound 3.16 µM, first compound 0.03 µM) 82.4% | viability, T/C (second compound 3.16 µM, first compound 0.0949 µM) 64.8% | viability, T/C (second compound 3.16 µM, first compound 0.3 µM) 84.4% | viability, T/C (second compound 3.16 µM, first compound 0.949 µM) 83.4% | viability, T/C (second compound 3.16 µM, first compound 3 µM) 101% | viability, T/C (second compound 10 µM, first compound 0.00949 µM) 100% | viability, T/C (second compound 10 µM, first compound 0.03 µM) 113% | viability, T/C (second compound 10 µM, first compound 0.0949 µM) 122% | viability, T/C (second compound 10 µM, first compound 0.3 µM) 113% | viability, T/C (second compound 10 µM, first compound 0.949 µM) 111% | viability, T/C (second compound 10 µM, first compound 3 µM) 124%
> 3 µM: IC50 (second compound 0.0316 µM) | IC50 (second compound 0.1 µM) | IC50 (second compound 0.316 µM) | IC50 (second compound 1 µM) | IC50 (second compound 3.16 µM) | IC50 (second compound 10 µM)

Reference: PubChem BioAssay AID2060912 (Molecular Pharmacology Branch, DTP, NCI, 2025)
